These results are taken from US10538521B2, “Pyrimidine derivative having antimalarial activity” (CARNA BIOSCIENCES, INC., priority 2016, dated 2020).

A word on the IC50: it is the concentration at which inhibition is half-maximal.

Experiment [1] has as its system K1 strain, a drug resistant strain of Plasmodium falciparum. In words: In vitro antimalarial assay (p-LDH, Malstat), K1 strain. Conditions: P. falciparum K1 (drug resistant), 72 h culture, p-LDH readout, read-out: Antimalarial activity (IC50 value), Strain K1. The format is cell-based. Put shortly:
(§1)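 P. falciparum FCR3 and K1 cultured in human erythrocytes (RPMI 1640, 10% human plasma; 2% hematocrit, 0.5 or 1% parasitaemia) with compound at 12.5 to 0.0001 μM final for 72 h at 37° C (3% O2-4% CO2-93% N2). Growth read as p-LDH activity (Malstat/NBT-PES, A655 nm) after freeze-thaw; IC50 from concentration-response curve.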

In experiment [2] the test system is FCR3 strain, a drug sensitive strain of Plasmodium falciparum. In words: In vitro antimalarial assay (p-LDH, Malstat), FCR3 strain. It is filed as cell-based. Conditions: P. falciparum FCR3 (drug sensitive), 72 h culture, p-LDH readout, read-out: Antimalarial activity (IC50 value), Strain FCR3. Put shortly:
as §1

A value given as a limit tells only on which side of the number the result lay.

In the case of `c1cc(Nc2nc(Nc3ccn4ccnc4c3)cc(N3CCOCC3)n2)nc(C2CC2)c1` [Example 110, N2-(6-cyclopropylpyridin-2-yl)-N4-(imidazo[1,2-a]pyridin-7-yl)-6-morpholinopyrimidine-2,4-diamine], the IC50 in experiment [1] is 100 to 1000 nM; in experiment [2], less than 100 nM.
`CCc1ccnc(Nc2nc(Nc3ccn4ccnc4c3)cc(N3CCC(O)CC3)n2)c1` [Example 111, 1-(2-((4-ethylpyridin-2-yl)amino)-6-(imidazo[1,2-a]pyridin-7-ylamino)pyrimidin-4-yl)piperidin-4-ol]: the IC50 in experiment [1] and in experiment [2] was less than 100 nM throughout.
Regarding `CCc1ccnc(Nc2nc(Nc3ccn4ccnc4c3)cc(N3CCC(N4CCOCC4)CC3)n2)c1` [Example 112, N2-(4-ethylpyridin-2-yl)-N4-(imidazo[1,2-a]pyridin-7-yl)-6-(4-morpholinopiperidin-1-yl)pyrimidine-2,4-diamine], the IC50 in experiment [1] and in experiment [2] was less than 100 nM throughout.
Regarding `CCc1ccnc(Nc2nc(Nc3ccn4ccnc4c3)cc(N3CCC(N4CCCCC4)CC3)n2)c1` [Example 113, 6-([1,4′-bipiperidin]-1′-yl)-N2-(4-ethylpyridin-2-yl)-N4-(imidazo[1,2-a]pyridin-7-yl)pyrimidine-2,4-diamine], the 50% inhibitory concentration (IC50) in experiment [1] and in experiment [2] was less than 100 nM throughout.
Take `CCc1ccnc(Nc2nc(Nc3ccn4ccnc4c3)cc(N3CC(O)C3)n2)c1` [Example 115, 1-(2-((4-ethylpyridin-2-yl)amino)-6-(imidazo[1,2-a]pyridin-7-ylamino)pyrimidin-4-yl)azetidin-3-ol]: the IC50 in experiment [1] and in experiment [2] was less than 100 nM throughout.
As to `CCc1ccnc(Nc2nc(Nc3ccn4ccnc4c3)cc(N3CC[C@@H](O)C3)n2)c1` [Example 116, (R)-1-(2-((4-ethylpyridin-2-yl)amino)-6-(imidazo[1,2-a]pyridin-7-ylamino)pyrimidin-4-yl)pyrrolidin-3-ol], the IC50 in experiment [1] and in experiment [2] was less than 100 nM throughout.
As for `CCc1ccnc(Nc2nc(Nc3ccn4ccnc4c3)cc(N3CC[C@H](O)C3)n2)c1` [Example 117, (S)-1-(2-((4-ethylpyridin-2-yl)amino)-6-(imidazo[1,2-a]pyridin-7-ylamino)pyrimidin-4-yl)pyrrolidin-3-ol], the IC50 in experiment [1] and in experiment [2] was less than 100 nM in each case.
For the compound `CCc1ccnc(Nc2nc(Nc3ccn4ccnc4c3)cc(N3CCC3)n2)c1` [Example 118, 6-(azetidin-1-yl)-N2-(4-ethylpyridin-2-yl)-N4-(imidazo[1,2-a]pyridin-7-yl)pyrimidine-2,4-diamine], the IC50 in experiment [1] and in experiment [2] was less than 100 nM each time.
In the case of `CCc1ccnc(Nc2nc(Nc3ccn4ccnc4c3)cc(N3CCC(CO)CC3)n2)c1` [Example 119, (1-(2-((4-ethylpyridin-2-yl)amino)-6-(imidazo[1,2-a]pyridin-7-ylamino)pyrimidin-4-yl)piperidin-4-yl)methanol], the IC50 in experiment [1] and in experiment [2] was less than 100 nM throughout.
`CCc1ccnc(Nc2nc(Nc3ccn4ccnc4c3)cc(N3CCOCCOCCOCC3)n2)c1` [Example 120, N2-(4-ethylpyridin-2-yl)-N4-(imidazo[1,2-a]pyridin-7-yl)-6-(1,4,7-trioxa-10-azacyclododecan-10-yl)pyrimidine-2,4-diamine]: the half-maximal inhibitory concentration (IC50) in experiment [1] and in experiment [2] was 1000 to 10000 nM each time.
On to `CC(C)c1cccc(Nc2nc(Nc3ccn4ccnc4c3)cc(N3CCCCC3)n2)n1` [Example 121, N4-(imidazo[1,2-a]pyridin-7-yl)-N2-(6-isopropylpyridin-2-yl)-6-(piperidin-1-yl)pyrimidine-2,4-diamine], for which the IC50 was 100 to 1000 nM in experiment [1] and less than 100 nM in experiment [2].
On to `CC(C)(C)c1cccc(Nc2nc(Nc3ccn4ccnc4c3)cc(N3CCCCC3)n2)n1` [Example 122, N2-(6-(tert-butyl)pyridin-2-yl)-N4-(imidazo[1,2-a]pyridin-7-yl)-6-(piperidin-1-yl)pyrimidine-2,4-diamine], for which the IC50 in experiment [1] and in experiment [2] was 100 to 1000 nM each time.
